Experimental data published in publication PMC4412158 (Nature chemical biology, 2014).

Target: T1, phosphoglycerate kinase 1 (hPGK1) (Homo sapiens, UniProt P00558)
T1 sequence (P00558 2-417): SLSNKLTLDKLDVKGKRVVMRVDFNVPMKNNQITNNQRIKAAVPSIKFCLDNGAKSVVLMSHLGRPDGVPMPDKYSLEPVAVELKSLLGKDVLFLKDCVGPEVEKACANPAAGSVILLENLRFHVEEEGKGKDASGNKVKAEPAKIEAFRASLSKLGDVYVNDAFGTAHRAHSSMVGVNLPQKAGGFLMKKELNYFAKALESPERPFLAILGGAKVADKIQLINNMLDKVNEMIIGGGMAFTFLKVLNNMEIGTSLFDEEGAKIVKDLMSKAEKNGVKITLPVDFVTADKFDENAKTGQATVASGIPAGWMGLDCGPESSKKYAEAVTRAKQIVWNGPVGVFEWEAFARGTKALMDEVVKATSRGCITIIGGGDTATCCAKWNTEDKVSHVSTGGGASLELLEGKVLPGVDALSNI
Assay: co-crystal structure hPGK1-3PG-TZ at […] Å
Type: binding

For `COc1cc2nc(N3CCN(C(=O)C4CCCO4)CC3)nc(N)c2cc1OC` (racemic) [TZ, terazosin], the “co-crystal structure hPGK1-3PG-TZ at 2.1 Å” value was “we obtained the ternary co-crystallization complexes for both the mouse and the human Pgk1-3PG-TZ”.
